Measurements reported in patent publication US4404206A, “Substituted iminoacid derivatives, process for preparing them and their use as enzyme inhibitors” (Science Union et Cie, priority 1979, dated 1983).

Test system: enzyme responsible for the conversion of angiotension I into angiotension II
Assay: Inhibition of the angiotensin I pressor response in dogs after intravenous administration (arterial pressure recorded)
Type: in vivo
Details: dog
Method: The compounds of the invention are tested in […] dogs, maintained in forced respiration by an apparatus.
The aorta is catheterized by way of the femoral arteria, and the arterial pressure is registered by an appropriate instrument.
Angiotension I and II are administered to the animals intravenously at the dose of 0.3 γ/Kg. After registering of the dose/activity relation curve, the compounds of the invention are administered also by the intravenous route and modification of the blood pressure is also registered.
The results obtained by the new compounds are summarized in the table hereinafter and are expressed in percentage of inhibition of the enzyme activity. The numbers in the brackets indicate the dose of the active enantiomer contained in the administered doses.

[1] = dose 20 mg/Kg IV, time 15 minutes
[2] = dose 20 mg/Kg IV, time 30 minutes
[3] = dose 20 mg/Kg IV, time 1 h 30 min.
[4] = dose 10 (2,5) mg/Kg IV, time 15 minutes
[5] = dose 10 (2,5) mg/Kg IV, time 30 minutes
[6] = dose 10 (2,5) mg/Kg IV, time 1 h 30 min.
[7] = dose 10 (2,5) mg/Kg IV, time 1 hour
[8] = dose 10 (2,5) mg/Kg IV, time 2 hours
[9] = dose 10 (2,5) mg/Kg IV, time 3 hours

CC(CC(=O)O)C(=O)N1Cc2ccccc2C[C@H]1C(=O)O (mixture of isomers) [Example 9, 2-[3-carboxy 2-(RS)methylpropionyl] 3-(S) carboxy 1,2,3,4-tetrahydroisoquinoline]
Percentage of inhibition (of the enzyme activity) [1]: 38% | Percentage of inhibition (of the enzyme activity) [2]: 35% | Percentage of inhibition (of the enzyme activity) [3]: 25% | Percentage of inhibition (of the enzyme activity) (dose 20 mg/Kg IV, time 1 hour): 25% | Percentage of inhibition (of the enzyme activity) (dose 20 mg/Kg IV, time 2 hours): 48% | Percentage of inhibition (of the enzyme activity) (dose 20 mg/Kg IV, time 3 hours): 25%

C[C@@H](CS)C(=O)N1C2CCCCC2C[C@@H]1C(=O)O (mixture of isomers) [Example 5, N-[3-mercapto 2-(RS)methylpropionyl] 2-(RS) carboxy perhydroindole]
Percentage of inhibition (of the enzyme activity) (dose 5 (1,25) mg/Kg IV, time 15 minutes): 100% | Percentage of inhibition (of the enzyme activity) (dose 5 (1,25) mg/Kg IV, time 30 minutes): 100% | Percentage of inhibition (of the enzyme activity) (dose 5 (1,25) mg/Kg IV, time 1 h 30 min.): 90% | Percentage of inhibition (of the enzyme activity) (dose 5 (1,25) mg/Kg IV, time 1 hour): 100% | Percentage of inhibition (of the enzyme activity) (dose 5 (1,25) mg/Kg IV, time 2 hours): 71% | Percentage of inhibition (of the enzyme activity) (dose 5 (1,25) mg/Kg IV, time 3 hours): 54% | Percentage of inhibition (of the enzyme activity) [4]: 100% | Percentage of inhibition (of the enzyme activity) [5]: 92% | Percentage of inhibition (of the enzyme activity) [6]: 92% | Percentage of inhibition (of the enzyme activity) [7]: 92% | Percentage of inhibition (of the enzyme activity) [8]: 92% | Percentage of inhibition (of the enzyme activity) [9]: 86%

CC(CS)C(=O)N1Cc2ccsc2CC1C(=O)O (racemic) [Example 6]
Percentage of inhibition (of the enzyme activity) [1]: 47% | Percentage of inhibition (of the enzyme activity) [2]: 51% | Percentage of inhibition (of the enzyme activity) [3]: 30% | Percentage of inhibition (of the enzyme activity) (dose 20 mg/Kg IV, time 1 hour): 37% | Percentage of inhibition (of the enzyme activity) (dose 20 mg/Kg IV, time 2 hours): 26% | Percentage of inhibition (of the enzyme activity) (dose 20 mg/Kg IV, time 3 hours): 23%

C[C@@H](CS)C(=O)N1CC2CCCCC2[C@@H]1C(=O)O (mixture of isomers) [Example 7, N-[3-mercapto 2-(RS)methylpropionyl] 1-(RS) carboxy perhydroisoindole]
Percentage of inhibition (of the enzyme activity) [4]: 83% | Percentage of inhibition (of the enzyme activity) [5]: 64% | Percentage of inhibition (of the enzyme activity) [6]: 48% | Percentage of inhibition (of the enzyme activity) [7]: 62% | Percentage of inhibition (of the enzyme activity) [8]: 40% | Percentage of inhibition (of the enzyme activity) [9]: 26%

CC(CS)C(=O)N1C(C(=O)O)CCC2CCCCC21 (racemic) [Example 8, 1-[3 mercapto 2-(RS)methylpropionyl] 2-(RS) carboxy perhydroquinoline.]
Percentage of inhibition (of the enzyme activity) [4]: 72% | Percentage of inhibition (of the enzyme activity) [5]: 69% | Percentage of inhibition (of the enzyme activity) [6]: 50% | Percentage of inhibition (of the enzyme activity) [7]: 64% | Percentage of inhibition (of the enzyme activity) [8]: 36% | Percentage of inhibition (of the enzyme activity) [9]: 31%

CC(CS)C(=O)N1CC2CCCCC2CC1C(=O)O (stereo not drawn) [Example 1, 2-(3-mercapto-2-(RS)-methylpropionyl)-cis-perhydroisoquinoline-3-carboxylicacid]
Percentage of inhibition (of the enzyme activity) [1]: 100% | Percentage of inhibition (of the enzyme activity) [2]: 100% | Percentage of inhibition (of the enzyme activity) [3]: 76% | Percentage of inhibition (of the enzyme activity) (dose 20 mg/Kg IV, time 1 hour): 90% | Percentage of inhibition (of the enzyme activity) (dose 20 mg/Kg IV, time 2 hours): 70% | Percentage of inhibition (of the enzyme activity) (dose 20 mg/Kg IV, time 3 hours): 42%
